These results are taken from ChEMBL document CHEMBL1201862, “PubChem BioAssay data set” (2004).

In test [1] the target is T1, Kappa-type opioid receptor (Homo sapiens, UniProt P41145). Nature of the test: SAR analysis of Antagonists of the Kappa Opioid Receptor (KOR) using an Image-Based Assay - Set 3. [Related pubchem assays (depositor defined):AID1777, AID1785]. Format: functional.
In the next test the target is Mu-type opioid receptor (Homo sapiens, UniProt P35372). Nature of the test: SAR Analysis of Antagonists of the MOR Receptor using an Image-Based Assay - Set 3. [Related pubchem assays (depositor defined):AID1777, AID1785, AID1786, AID1966, AID2133, AID2136, AID2284, AID2285, AID2420]. Format: functional.
Test [2] has as its target Delta-type opioid receptor (Homo sapiens, UniProt P41143). Nature of the test: SAR Analysis of Antagonists of the DOR Receptor using an Image-Based Assay - Set 3. [Related pubchem assays (depositor defined):AID1777, AID1785]. The class given is functional.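 Also: U2OS cells expressing DOR1 and beta-arrestin GFP stimulated with 100 nM SNC80; imaging of GFP-tagged beta-arrestin moving into spots after receptor activation.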
Test [3] addresses T1, Kappa-type opioid receptor. Nature of the test: SAR analysis of small molecule antagonists of the kappa opioid receptor via a luminescent beta-arrestin assay - Set 3. [Related pubchem assays (depositor defined):AID1777, AID1778, AID1785, AID1786, AID1966, AID2133, AID2136, AID2285, AID2495]. The class given is functional.
For the next test, the target named is T2, Coagulation factor XII (Homo sapiens, UniProt P00748).
T2 sequence (P00748 whole entry): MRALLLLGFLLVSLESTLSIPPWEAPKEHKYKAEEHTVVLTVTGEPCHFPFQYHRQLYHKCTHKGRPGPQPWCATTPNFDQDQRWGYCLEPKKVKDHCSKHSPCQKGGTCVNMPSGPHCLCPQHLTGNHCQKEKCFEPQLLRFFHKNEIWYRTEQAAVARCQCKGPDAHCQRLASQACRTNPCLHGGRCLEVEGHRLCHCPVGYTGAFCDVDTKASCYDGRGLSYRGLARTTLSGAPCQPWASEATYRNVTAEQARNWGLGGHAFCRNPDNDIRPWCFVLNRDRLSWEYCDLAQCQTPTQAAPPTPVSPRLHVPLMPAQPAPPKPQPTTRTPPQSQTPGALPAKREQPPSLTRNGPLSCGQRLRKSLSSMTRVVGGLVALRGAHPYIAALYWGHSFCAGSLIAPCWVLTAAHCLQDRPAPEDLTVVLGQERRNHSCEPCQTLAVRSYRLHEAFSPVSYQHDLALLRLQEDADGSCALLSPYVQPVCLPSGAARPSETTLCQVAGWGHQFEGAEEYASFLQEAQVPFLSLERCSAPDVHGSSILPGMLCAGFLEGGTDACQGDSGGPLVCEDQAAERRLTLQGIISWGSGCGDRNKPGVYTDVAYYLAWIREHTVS
Nature of the test: Factor XIIa Dose Response Confirmation from Single Well HTS. [Related pubchem assays (depositor defined):AID701]. Format: functional.

The target of test [4] is T3, Tyrosine-protein phosphatase non-receptor type 7 (Homo sapiens, UniProt P35236).
T3 sequence (P35236 whole entry): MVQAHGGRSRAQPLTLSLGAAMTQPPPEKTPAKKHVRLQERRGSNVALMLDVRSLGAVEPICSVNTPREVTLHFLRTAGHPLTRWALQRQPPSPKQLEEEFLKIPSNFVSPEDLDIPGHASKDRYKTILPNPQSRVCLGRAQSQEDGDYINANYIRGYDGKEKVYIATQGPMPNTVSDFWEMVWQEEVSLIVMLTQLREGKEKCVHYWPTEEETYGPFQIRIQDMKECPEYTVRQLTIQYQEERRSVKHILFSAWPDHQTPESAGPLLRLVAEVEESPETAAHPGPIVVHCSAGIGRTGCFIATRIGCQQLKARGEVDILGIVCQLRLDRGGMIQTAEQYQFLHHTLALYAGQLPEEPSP
Nature of the test: Dose Response confirmation of compounds that inhibit HePTP. [Related pubchem assays (depositor defined):AID1059, AID1661, AID2085]. The class given is functional.

In test [5] the target is Photoreceptor-specific nuclear receptor (Homo sapiens, UniProt Q9Y5X4). Nature of the test: ligands suppressing NR2E3 nuclear receptor activity – biochemical, TR-FRET, dose response (AID 463256). The class given is functional.
Sequence of Photoreceptor-specific nuclear receptor (Q9Y5X4 whole entry): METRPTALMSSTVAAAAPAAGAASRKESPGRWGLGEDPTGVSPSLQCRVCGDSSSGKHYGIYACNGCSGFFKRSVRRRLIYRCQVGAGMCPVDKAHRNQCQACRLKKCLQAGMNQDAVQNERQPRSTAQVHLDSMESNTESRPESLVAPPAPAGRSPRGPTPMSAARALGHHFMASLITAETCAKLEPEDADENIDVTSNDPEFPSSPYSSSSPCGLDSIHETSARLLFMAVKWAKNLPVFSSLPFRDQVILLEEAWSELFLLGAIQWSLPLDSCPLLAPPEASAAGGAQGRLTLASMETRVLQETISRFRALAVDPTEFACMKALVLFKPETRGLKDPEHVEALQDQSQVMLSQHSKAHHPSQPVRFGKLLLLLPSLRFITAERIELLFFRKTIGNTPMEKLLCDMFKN
Test [6] deals with Dual specificity protein phosphatase 3 (Homo sapiens, UniProt P51452). Nature of the test: Dose Response Confirmation of compounds that inhibit VHR1 in Fluorescent Assay. [Related pubchem assays (depositor defined):AID1661, AID1878]. Format: functional.
The target in test [7] is Peroxisome proliferator-activated receptor gamma/Nuclear receptor corepressor 2 (Homo sapiens, UniProt P37231+Q9Y618). Nature of the test: Counterscreen for NR2E3 inverse agonists: TR-FRET-based biochemical high throughput dose response assay to identify inverse agonists of the interaction between peroxisome proliferator-activated receptor gamma (PPARg) and nuclear receptor co-repressor 2 (NCOR2). The class given is functional.
Sequence of Peroxisome proliferator-activated receptor gamma/Nuclear receptor corepressor 2 (P37231 whole entry): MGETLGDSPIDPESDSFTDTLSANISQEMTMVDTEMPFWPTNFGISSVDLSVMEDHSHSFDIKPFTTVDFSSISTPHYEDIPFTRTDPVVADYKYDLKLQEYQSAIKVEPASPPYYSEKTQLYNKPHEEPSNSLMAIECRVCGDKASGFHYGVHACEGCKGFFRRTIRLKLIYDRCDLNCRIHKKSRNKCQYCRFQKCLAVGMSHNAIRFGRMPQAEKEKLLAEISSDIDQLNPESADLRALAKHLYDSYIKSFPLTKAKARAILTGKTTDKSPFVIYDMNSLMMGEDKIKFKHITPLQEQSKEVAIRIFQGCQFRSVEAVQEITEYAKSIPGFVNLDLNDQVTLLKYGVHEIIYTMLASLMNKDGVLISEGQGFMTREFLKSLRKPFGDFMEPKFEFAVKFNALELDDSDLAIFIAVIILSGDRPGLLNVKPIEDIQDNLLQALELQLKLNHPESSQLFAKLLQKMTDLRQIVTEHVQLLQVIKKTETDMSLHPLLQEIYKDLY
Sequence of Peroxisome proliferator-activated receptor gamma/Nuclear receptor corepressor 2 (Q9Y618 whole entry): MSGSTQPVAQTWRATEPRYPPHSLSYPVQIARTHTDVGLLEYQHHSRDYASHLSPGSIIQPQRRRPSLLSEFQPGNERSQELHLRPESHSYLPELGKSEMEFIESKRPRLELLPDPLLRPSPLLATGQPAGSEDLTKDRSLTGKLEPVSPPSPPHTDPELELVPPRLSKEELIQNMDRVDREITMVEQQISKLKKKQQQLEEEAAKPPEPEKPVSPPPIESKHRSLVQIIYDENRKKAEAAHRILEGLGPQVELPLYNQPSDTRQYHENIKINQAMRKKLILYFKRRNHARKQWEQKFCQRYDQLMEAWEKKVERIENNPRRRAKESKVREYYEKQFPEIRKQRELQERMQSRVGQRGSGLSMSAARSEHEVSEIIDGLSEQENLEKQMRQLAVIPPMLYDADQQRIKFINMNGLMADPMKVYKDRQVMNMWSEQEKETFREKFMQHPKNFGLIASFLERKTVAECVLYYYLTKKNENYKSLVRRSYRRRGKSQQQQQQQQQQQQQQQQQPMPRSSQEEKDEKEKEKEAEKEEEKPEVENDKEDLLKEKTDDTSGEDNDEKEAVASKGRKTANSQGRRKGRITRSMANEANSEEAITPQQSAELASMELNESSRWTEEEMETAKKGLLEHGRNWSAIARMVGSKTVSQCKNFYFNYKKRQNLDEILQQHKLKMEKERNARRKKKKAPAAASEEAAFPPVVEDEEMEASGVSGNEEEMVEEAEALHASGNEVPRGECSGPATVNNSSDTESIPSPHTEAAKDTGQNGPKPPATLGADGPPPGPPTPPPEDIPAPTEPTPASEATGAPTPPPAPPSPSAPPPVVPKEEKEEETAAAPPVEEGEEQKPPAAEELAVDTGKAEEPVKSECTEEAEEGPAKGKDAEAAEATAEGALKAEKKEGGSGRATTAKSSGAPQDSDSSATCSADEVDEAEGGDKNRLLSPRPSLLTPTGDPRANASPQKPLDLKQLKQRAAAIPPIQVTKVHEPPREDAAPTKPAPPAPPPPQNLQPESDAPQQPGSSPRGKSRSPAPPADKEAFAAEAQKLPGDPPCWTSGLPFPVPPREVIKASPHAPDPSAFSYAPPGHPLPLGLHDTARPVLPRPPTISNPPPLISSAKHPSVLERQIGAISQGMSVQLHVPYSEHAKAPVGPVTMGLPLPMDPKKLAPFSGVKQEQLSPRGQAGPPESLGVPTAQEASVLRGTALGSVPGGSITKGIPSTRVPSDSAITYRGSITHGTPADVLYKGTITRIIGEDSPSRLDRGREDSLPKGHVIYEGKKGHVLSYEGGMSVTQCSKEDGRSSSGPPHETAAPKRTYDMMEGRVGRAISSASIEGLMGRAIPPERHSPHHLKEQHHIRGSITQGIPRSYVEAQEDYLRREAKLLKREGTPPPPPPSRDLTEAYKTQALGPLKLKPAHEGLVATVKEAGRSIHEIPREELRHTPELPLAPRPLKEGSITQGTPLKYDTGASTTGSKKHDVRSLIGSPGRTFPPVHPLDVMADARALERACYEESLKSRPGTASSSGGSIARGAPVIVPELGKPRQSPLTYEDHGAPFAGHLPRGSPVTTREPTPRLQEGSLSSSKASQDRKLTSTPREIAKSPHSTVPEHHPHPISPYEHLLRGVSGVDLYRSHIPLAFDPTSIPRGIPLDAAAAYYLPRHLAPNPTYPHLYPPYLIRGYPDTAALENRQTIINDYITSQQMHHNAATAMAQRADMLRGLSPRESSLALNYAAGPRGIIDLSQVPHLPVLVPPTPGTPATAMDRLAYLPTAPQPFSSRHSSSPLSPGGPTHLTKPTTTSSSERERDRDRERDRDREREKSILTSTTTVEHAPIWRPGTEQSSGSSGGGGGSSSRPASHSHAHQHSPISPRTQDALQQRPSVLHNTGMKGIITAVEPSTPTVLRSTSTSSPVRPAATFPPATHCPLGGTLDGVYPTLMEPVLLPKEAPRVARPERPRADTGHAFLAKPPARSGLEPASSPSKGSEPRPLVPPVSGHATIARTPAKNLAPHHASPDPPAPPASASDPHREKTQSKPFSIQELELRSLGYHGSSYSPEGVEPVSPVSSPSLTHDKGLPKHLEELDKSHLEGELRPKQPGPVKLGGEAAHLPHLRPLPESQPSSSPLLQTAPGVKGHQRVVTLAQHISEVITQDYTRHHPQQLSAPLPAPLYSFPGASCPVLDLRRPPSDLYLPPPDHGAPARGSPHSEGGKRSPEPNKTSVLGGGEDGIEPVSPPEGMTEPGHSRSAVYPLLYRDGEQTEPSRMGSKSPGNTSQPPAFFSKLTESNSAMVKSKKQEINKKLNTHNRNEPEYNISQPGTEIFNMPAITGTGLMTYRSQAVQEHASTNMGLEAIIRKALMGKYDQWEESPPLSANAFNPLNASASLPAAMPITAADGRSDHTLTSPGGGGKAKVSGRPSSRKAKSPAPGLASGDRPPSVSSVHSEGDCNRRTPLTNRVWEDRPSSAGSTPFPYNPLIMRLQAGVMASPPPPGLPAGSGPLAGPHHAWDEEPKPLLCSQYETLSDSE

In a further test the target is T4, Protein RecA (Mycobacterium tuberculosis, UniProt P9WHJ3).
T4 sequence (P9WHJ3 whole entry): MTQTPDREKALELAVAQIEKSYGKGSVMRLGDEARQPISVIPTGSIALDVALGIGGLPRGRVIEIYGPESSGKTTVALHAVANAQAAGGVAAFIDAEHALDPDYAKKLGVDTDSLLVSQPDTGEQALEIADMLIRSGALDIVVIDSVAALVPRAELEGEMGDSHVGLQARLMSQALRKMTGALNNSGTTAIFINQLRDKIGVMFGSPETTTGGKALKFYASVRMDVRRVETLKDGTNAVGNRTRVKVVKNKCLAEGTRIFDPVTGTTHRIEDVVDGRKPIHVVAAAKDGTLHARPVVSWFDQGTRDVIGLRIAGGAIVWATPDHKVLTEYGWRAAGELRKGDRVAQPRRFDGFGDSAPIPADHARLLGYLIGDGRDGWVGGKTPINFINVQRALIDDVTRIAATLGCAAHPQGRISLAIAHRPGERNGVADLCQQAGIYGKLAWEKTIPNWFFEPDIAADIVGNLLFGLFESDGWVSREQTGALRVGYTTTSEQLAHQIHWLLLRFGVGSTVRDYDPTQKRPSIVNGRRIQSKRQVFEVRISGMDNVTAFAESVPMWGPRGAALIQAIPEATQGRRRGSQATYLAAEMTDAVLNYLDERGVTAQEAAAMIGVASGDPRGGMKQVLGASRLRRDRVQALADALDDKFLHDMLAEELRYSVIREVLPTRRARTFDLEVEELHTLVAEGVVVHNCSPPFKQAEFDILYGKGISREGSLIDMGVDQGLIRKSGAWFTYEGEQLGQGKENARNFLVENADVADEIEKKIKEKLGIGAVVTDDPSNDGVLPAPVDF
Nature of the test: Fluorescence Cell-Free Homogeneous Dose Retest to Identify Inhibitors of RecA-Intein Splicing Activity. [Related pubchem assays (depositor defined):AID2097, AID2223, AID489010, AID492950]. The class given is functional.

Test [8] concerns the target T5, Calpain-2 catalytic subunit (Sus scrofa, UniProt P43367).
T5 sequence (P43367 whole entry): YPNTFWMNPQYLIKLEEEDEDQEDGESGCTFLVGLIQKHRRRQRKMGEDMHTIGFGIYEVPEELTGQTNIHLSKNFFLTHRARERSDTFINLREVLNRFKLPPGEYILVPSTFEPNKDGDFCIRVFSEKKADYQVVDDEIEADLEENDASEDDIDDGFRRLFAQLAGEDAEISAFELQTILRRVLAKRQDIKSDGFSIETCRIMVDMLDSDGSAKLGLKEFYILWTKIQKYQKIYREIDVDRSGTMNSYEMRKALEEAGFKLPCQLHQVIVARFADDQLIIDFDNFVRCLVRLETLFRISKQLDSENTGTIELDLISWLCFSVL
Nature of the test: m-calpain protease blockers, concentration series – biochemical, fluorogenic peptide substrate, dose response (AID 1420). The class given is functional.

Test [9] has as its target T6, Replicative DNA helicase DnaB (Mycobacterium tuberculosis, UniProt P9WMR3).
T6 sequence (P9WMR3 whole entry): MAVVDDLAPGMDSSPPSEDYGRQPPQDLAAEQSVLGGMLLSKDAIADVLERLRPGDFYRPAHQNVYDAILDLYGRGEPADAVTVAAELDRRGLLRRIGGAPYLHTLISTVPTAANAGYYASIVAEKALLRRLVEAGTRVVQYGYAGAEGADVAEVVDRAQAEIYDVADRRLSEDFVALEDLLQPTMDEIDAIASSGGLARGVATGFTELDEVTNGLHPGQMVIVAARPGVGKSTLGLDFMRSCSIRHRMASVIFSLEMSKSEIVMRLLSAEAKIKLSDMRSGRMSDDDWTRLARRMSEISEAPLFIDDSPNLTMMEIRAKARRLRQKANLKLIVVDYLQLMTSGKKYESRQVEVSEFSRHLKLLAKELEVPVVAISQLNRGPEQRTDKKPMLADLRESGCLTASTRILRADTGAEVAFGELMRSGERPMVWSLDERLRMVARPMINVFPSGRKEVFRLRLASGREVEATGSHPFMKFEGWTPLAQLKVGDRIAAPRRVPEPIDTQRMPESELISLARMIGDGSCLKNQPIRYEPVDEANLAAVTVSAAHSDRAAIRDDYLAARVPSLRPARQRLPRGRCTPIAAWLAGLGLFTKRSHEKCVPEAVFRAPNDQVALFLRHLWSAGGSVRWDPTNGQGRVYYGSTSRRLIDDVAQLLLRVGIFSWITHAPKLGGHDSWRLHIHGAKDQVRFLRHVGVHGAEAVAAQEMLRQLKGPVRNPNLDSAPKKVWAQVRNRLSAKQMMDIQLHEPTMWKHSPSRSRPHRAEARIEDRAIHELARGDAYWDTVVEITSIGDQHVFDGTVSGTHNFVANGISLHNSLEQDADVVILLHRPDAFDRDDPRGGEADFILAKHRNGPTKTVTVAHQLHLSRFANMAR
Nature of the test: DnaB intein splicing inhibitors, dose response, biochemical, cell-free fluorescence (AID 449749). Format: functional.

Test [10] can be described thus: Intein inhibitors as potential Tuberculosis drugs, a cytotoxicity screen. [Related pubchem assays (depositor defined):AID2221, AID2223, AID434968, AID435010, AID449749, AID449750, AID489010]. The class given is functional.
Test [11] deals with BJ. Nature of the test: BJ-TERT-LT-ST fibroblast viability loss – cell-based, RAS-independent, luminescence, dose response (AID 1935).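 Also: BJ fibroblasts immortalized with TERT plus LT and ST oncogenes.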 The class given is functional. The note with it: Homo sapiens.
The subject of test [12] is BJ. Nature of the test: BJ-TERT fibroblast viability loss – cell-based, RAS-independent, luminescence, dose response (AID 1933). Format: functional. The note with it: Homo sapiens.
Test [13] has as its system BJ. Nature of the test: growth inhibition of engineered Ras-driven BJ cells – cell-based, alamar blue fluorescence, cherrypicked samples, dose response (AID 2631).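 Also: confirmatory dose-response assay in RAS-dependent BJ fibroblasts engineered with TERT, LT and ST, with cytotoxicity read by fluorescence.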 The class given is functional. The note with it: Homo sapiens.
In test [14] the test system is BJ. Nature of the test: cells. Format: functional, cell-based. The note with it: Homo sapiens.
A short description of test [15]: DRD fibroblast viability loss – cell-based, non-viral oncogenic, luminescence, dose response (AID 1934). The class given is functional. Conditions: Homo sapiens.
The target in test [16] is G-protein coupled receptor 55 (Homo sapiens, UniProt Q9Y2T6). Nature of the test: selective activators of receptor GPR55 – imaging, U2OS cells, beta-arrestin-GFP redistribution, primary screen (AID 1961). The class given is functional.
Sequence of G-protein coupled receptor 55 (Q9Y2T6 whole entry): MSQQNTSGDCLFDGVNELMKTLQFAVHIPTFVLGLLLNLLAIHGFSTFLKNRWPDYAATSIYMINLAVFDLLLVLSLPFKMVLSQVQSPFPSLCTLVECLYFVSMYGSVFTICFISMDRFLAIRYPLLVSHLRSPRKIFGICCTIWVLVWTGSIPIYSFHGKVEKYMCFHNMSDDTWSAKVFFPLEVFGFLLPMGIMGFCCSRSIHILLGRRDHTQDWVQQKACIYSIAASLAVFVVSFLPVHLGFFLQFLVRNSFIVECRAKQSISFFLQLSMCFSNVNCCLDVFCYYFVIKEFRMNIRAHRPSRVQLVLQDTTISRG
For test [17], the target named is Sphingosine 1-phosphate receptor 4 (Homo sapiens, UniProt O95977). Nature of the test: Late-stage fluorescence dose response cell-based assay to identify agonists of the Sphingosine 1-Phosphate Receptor 4 (S1P4): purchased compounds EC50. [Related pubchem assays (depositor defined):AID1509, AID1523, AID1563, AID1686, AID1701, AID1801]. Format: functional.
Sequence of Sphingosine 1-phosphate receptor 4 (O95977 whole entry): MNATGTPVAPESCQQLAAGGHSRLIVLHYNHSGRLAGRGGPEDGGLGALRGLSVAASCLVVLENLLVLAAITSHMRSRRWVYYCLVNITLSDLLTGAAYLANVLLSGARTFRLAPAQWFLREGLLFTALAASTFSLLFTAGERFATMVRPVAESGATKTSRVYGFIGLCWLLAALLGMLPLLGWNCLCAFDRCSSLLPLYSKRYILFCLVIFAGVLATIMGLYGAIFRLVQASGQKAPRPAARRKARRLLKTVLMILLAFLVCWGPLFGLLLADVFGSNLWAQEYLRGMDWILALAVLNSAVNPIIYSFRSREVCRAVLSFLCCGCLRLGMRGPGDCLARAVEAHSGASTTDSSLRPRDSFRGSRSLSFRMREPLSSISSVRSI

The structures appear in SMILES notation. The source made the active and inactive calls. Bounds are passed on as bounds.
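For CC50 in this document: cells exposed to compound for 72 hours before luminescence readout.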

T1 sequence (P41145 whole entry): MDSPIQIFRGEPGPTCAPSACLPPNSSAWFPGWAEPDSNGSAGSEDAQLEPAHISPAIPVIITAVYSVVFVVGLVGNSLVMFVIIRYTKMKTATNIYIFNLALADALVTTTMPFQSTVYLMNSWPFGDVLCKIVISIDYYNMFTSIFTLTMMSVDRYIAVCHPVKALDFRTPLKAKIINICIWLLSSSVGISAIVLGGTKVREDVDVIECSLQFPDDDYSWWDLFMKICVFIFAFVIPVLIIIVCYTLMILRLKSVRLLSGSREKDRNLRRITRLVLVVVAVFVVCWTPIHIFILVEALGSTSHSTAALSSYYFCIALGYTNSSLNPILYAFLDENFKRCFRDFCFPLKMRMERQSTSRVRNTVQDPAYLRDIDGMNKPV
Sequence of Delta-type opioid receptor (P41143 whole entry): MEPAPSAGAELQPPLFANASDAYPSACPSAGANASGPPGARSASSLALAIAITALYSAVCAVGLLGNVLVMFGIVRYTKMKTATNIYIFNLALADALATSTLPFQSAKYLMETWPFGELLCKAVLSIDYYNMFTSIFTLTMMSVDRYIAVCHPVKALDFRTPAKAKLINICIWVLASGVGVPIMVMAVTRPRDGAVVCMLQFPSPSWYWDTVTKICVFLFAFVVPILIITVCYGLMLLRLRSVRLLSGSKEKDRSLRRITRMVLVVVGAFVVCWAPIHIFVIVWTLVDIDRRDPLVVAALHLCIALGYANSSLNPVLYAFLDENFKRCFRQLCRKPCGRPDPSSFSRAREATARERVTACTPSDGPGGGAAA

With `CC(C)N(CCNC(=O)c1ccc(CNS(=O)(=O)c2ccc(Br)cc2)cc1)Cc1ccc(Br)cc1`, the IC50 in [1] is 2.03 µM (active); on Mu-type opioid receptor, > 32 µM (inactive); in [2], > 32 µM (inactive); in test [3], > 20 µM (inactive).

For the molecule `Cc1ccccc1CNCc1cccnc1`, at Coagulation factor XII, the IC50 was > 50 µM (inactive).

On to `O=C(Nc1ccc2oc(-c3cccnc3)nc2c1)c1ccc2c(c1)OCCO2`, for which the concentration for half-maximal inhibition (IC50) in test [4] was 5.36 µM (active); in [5], 1.61 µM (active); in test [6], 8.43 µM (active); in test [7], 1.46 µM (active).

Regarding `Cc1ccc(N(C(=O)CCl)C(C(=O)NC2CCCCC2)c2cccnc2)cc1C` (stereo not given), the EC50 was 0.339 µM (active) on Protein RecA; 3.95 µM (active) with BJ [11]; 0.171 µM (inconclusive) in the test on BJ [12]; 0.147 µM (active) with BJ [13]; 1.25 µM (active) in the test with BJ [14]; 0.413 µM (active) in test [15]. Moreover, the half-inhibitory concentration (IC50) in test [8] is on record as 34.7 µM (not active). Further, the concentration at half-maximal activity (AC50) in test [9] was 2.3 µM (active). Further, in test [10], the CC50 was 0.1 µM (active).

As for `COc1ccc2cc(C)c3nnc(SCC(=O)Nc4nc(-c5ccccc5)cs4)n3c2c1`, in test [16], the EC50 is 1.03 µM (active).

As to `COc1ccc(CNC(=O)C(C)OC(=O)c2c(C)nn(Cc3ccccc3)c2Cl)cc1` (stereo not given), in test [17], the EC50 is > 50 µM (inactive).
